Experimental data taken from patent US20240199600A1, “CONDENSED HETEROCYCLIC COMPOUND HAVING A SULFONAMIDE GROUP OR SALT THEREOF, AGRICULTURAL OR HORTICULTURAL INSECTICIDE OR ANIMAL ECTOPARASITE OR ENDOPARASITE CONTROL AGENT COMPRISING THE COMPOUND OR THE SALT THEREOF, AND METHOD FOR USING THE COMPOUND OR THE SALT THEREOF, THE INSECTICIDE, OR THE …” (NIHON NOHYAKU CO., LTD., priority 2021, published 2024).

Columns and labels:
[1] = test system: Plutella xylostella; assay: whole plant or invertebrate; details: in Brassica rapa, 144 h, read-out: insecticidal efficacy (corrected mortality rate), activity level
Experimental: Insecticidal test on Plutella xylostella
Adults of P. xylostella were released onto Chinese cabbage seedlings and allowed to lay eggs thereon. […] After air-dried, the seedlings were kept in a thermostatic chamber at 25° C. […] This test was conducted in triplicate using 10 adults of P. xviostella per plot.
Corrected mortality rate (%)100×(Number of hatched larvae in a non-treatment plot-Number of hatched larvae in a treatment plot)/Number of hatched larvae in a non-treatment plot [Math. 3]

[2] = test system: Laodelphax striatelius; assay: whole plant or invertebrate; details: in Oryza sativa, 192 h, read-out: insecticidal efficacy (corrected mortality rate), activity level
Excerpt: Insecticidal test on Laodelphax striatelius
The sulfonamide group-containing condensed heterocyclic compounds represented by the general formula (1) of the present invention or salts thereof were separately dispersed in water and diluted to 500 ppm. Rice plant seedlings (variety: Nihonbare) were dipped in the agrochenrical dispersions for 30 seconds. After air-dried, each seedling was put into a separate glass test tube and inoculated with ten 3rd-instar larvae of L, striatellus, and then the glass test tubes were capped with cotton plugs. At 8 days after the inoculation, the numbers of surviving larvae and dead larvae were counted to determine the survival rate, the corrected mortality rate was calculated according to the formula shown below, and the insecticidal efficacy was evaluated according to the criteria shown below.

Which results are given for `CN(C)S(=O)(=O)c1cc(C2CC2)cnc1-c1nc2cc(SC(F)(F)F)ccc2o1` [Compound 4-6, 5-cyclopropyl-N,N-dimethyl-2-(5-trifluoromethylthiobenzoxazol-2-yl)pyridine-3-sulfonamide]?
mortality at 500 ppm [1]: 100%; mortality at 500 ppm [2]: 100%
